Series [1] concerns Candida albicans. Description: Antifungal activity against Candida albicans assessed as inhibition of fungal growth measured after 48 hrs by CLSI based agar dilution method. Format: functional. A general note: Agar dilution tests growth on a series of plates holding different concentrations.
Series [2] deals with Pichia kudriavzevii. Description: Antifungal activity against Candida krusei assessed as inhibition of fungal growth measured after 48 hrs by CLSI based agar dilution method. The series is classed as functional.
In series [3] the test system is Candida parapsilosis. Description: Antifungal activity against Candida parapsilosis assessed as inhibition of fungal growth measured after 48 hrs by CLSI based agar dilution method. Format: functional. To be noted: Lodderomyces parapsilosis.
The test system of series [4] is Candida tropicalis. Description: Antifungal activity against Candida tropicalis assessed as inhibition of fungal growth measured after 48 hrs by CLSI based agar dilution method. The series is classed as functional.
The test system of series [5] is Pichia kudriavzevii. Put plainly: Antifungal activity against Candida krusei ATCC 6258 assessed as inhibition of fungal growth measured after 48 hrs by CLSI based agar dilution method. Format: functional.
In series [6] the test system is Cryptococcus neoformans. Description: Antifungal activity against Cryptococcus neoformans ATCC 32609 assessed as inhibition of fungal growth measured after 48 hrs by CLSI based agar dilution method. The series is classed as functional.
Series [7] in a line: Hemolytic activity in human RBC measured after 1 hr. Format: toxicity, cell-based, Erythrocyte. To be noted: red blood cells (erythrocytes).
Series [8] in a line: Elimination half life in ICR (CD-1) mouse at 1 mg/kg, iv measured upto 24 hrs. The series is classed as ADME, organism-based. To be noted: in vivo, read-out: beta t1/2 (converted).
Series [9] in a line: AUClast in ICR (CD-1) mouse at 1 mg/kg, iv measured upto 24 hrs. Conditions: ICR (CD-1), in vivo. Format: ADME, organism-based. Also on record: dose 1 mg/kg, time < 24 hrs, route iv.
Series [10] in a line: Observed AUC infinity in ICR (CD-1) mouse at 1 mg/kg, iv measured upto 24 hrs. More on the design: dose 1 mg/kg, time < 24 hrs, route iv. Format: ADME, organism-based. To be noted: ICR (CD-1), in vivo.
Series [11] can be described thus: Observed clearance in ICR (CD-1) mouse at 1 mg/kg, iv measured upto 24 hrs. Format: ADME, organism-based. Also on record: dose 1 mg/kg, time < 24 hrs, route iv. To be noted: in vivo, route iv, dose 1 mg/kg, time < 24 hrs, read-out: CL.
Series [12] in a line: Observed MRT infinity in ICR (CD-1) mouse at 1 mg/kg, iv measured upto 24 hrs. The series is classed as ADME, organism-based. Conditions: in vivo.
Series [13] is described as follows: Observed volume of distribution at steady state in ICR (CD-1) mouse at 1 mg/kg, iv measured upto 24 hrs. Format: ADME, organism-based. To be noted: in vivo, read-out: Vdss.

Converted amounts (≈) assume the structure as drawn.

As a reminder, the MIC is the least concentration at which growth counts as inhibited. The HC50 is the concentration giving 50% haemolysis. Higher therefore signals less damage to red cells. What is called AUC(0-t) is the area under the concentration-time curve up to a stated or last time point. A low value points to low exposure. One may read the AUC(0-inf) as total exposure, with the tail of the curve extrapolated. What is called MRT inf is a mean duration of stay, worked out from the concentration-time curve. As to `CNCC(=O)N[C@@H]1[C@H](O)[C@H](O[C@H]2/C=C/C=C/C=C/C=C/C=C/C=C/C=C/[C@H](C)[C@@H](O)[C@@H](C)[C@H](C)OC(=O)C[C@H](O)C[C@H](O)CC[C@@H](O)[C@H](O)C[C@H](O)C[C@]3(O)C[C@H](O)[C@@H](C(=O)N4CCN(C(C)(C)CO)CC4)[C@H](C2)O3)O[C@H](C)[C@H]1O`, the minimum inhibitory concentration (MIC) is 1 µg/mL (≈ 0.881 µM) in series [1]; 1 µg/mL (≈ 0.881 µM) in series [2]; 1 µg/mL (≈ 0.881 µM) in [3]; 1 µg/mL (≈ 0.881 µM) in [4]; 4 µg/mL (≈ 3.52 µM) in series [5]; 1 µg/mL (≈ 0.881 µM) in series [6]. Moreover, in [7], the HC50 at 1 h is 50.7 µM. Also, the half-life in series [8] was 16.4 h. The exposure AUC(0-t) at 24 h in [9] came out at 10700 ng·h/mL. The molecule also came in with an AUC(0-inf) in [10] of 17700 ng·h/mL. In addition, the clearance in series [11] stood at 0.95 mL/min/kg. In series [12], this molecule gave a mean residence time (MRT inf) of 25.4 h. Further, the Vd in [13] turned out to be 1.44 L/kg.
As to `C[C@@H]1[C@H](O)[C@@H](C)/C=C/C=C/C=C/C=C/C=C/C=C/C=C/[C@H](O[C@@H]2O[C@H](C)[C@@H](O)[C@H](NC(=O)CN)[C@@H]2O)C[C@@H]2O[C@](O)(C[C@@H](O)C[C@@H](O)[C@H](O)CC[C@@H](O)C[C@@H](O)CC(=O)O[C@H]1C)C[C@H](O)[C@H]2C(=O)N1CCN(CCO)CC1`, the MIC in [1] came to 0.25 µg/mL (≈ 0.229 µM); in series [2], 0.25 µg/mL (≈ 0.229 µM); in series [3] it was 0.5 µg/mL (≈ 0.457 µM); in series [4], 0.25 µg/mL (≈ 0.229 µM); in series [5], 8 µg/mL (≈ 7.32 µM); in [6] it was 0.25 µg/mL (≈ 0.229 µM). In addition, in series [7], the 50% haemolytic concentration (HC50) at 1 h was determined as 30.6 µM. Moreover, the half-life in [8] is 7.72 h. In series [9], this molecule yielded an AUC(0-t) at 24 h of 3060 ng·h/mL. This molecule also had an AUC(0-inf) in series [10] of 3440 ng·h/mL. For the same molecule, in series [11], the clearance was determined as 4.85 mL/min/kg. Moreover, the MRT inf in [12] was 10.5 h. For the same molecule, the Vd in series [13] worked out at 3.06 L/kg.
In the case of `C[C@@H]1[C@H](O)[C@@H](C)/C=C/C=C/C=C/C=C/C=C/C=C/C=C/[C@H](O[C@@H]2O[C@H](C)[C@@H](O)[C@H](NC(=O)CN)[C@@H]2O)C[C@@H]2O[C@](O)(C[C@@H](O)C[C@@H](O)[C@H](O)CC[C@@H](O)C[C@@H](O)CC(=O)O[C@H]1C)C[C@H](O)[C@H]2C(=O)NCCCO`, the MIC turned out to be 0.5 µg/mL (≈ 0.482 µM) in [1]; 0.25 µg/mL (≈ 0.241 µM) in [2]; 0.5 µg/mL (≈ 0.482 µM) in [3]; 2 µg/mL (≈ 1.93 µM) in [4]; 0.25 µg/mL (≈ 0.241 µM) in [5]; 0.25 µg/mL (≈ 0.241 µM) in [6]. Further, the concentration for 50% haemolysis (HC50) at 1 h in series [7] was found to be 7.86 µM.
Consider `CNCC(=O)N[C@@H]1[C@H](O)[C@H](O[C@H]2/C=C/C=C/C=C/C=C/C=C/C=C/C=C/[C@H](C)[C@@H](O)[C@@H](C)[C@H](C)OC(=O)C[C@H](O)C[C@H](O)CC[C@@H](O)[C@H](O)C[C@H](O)C[C@]3(O)C[C@H](O)[C@@H](C(=O)N4CCN(CC(C)(O)CO)CC4)[C@H](C2)O3)O[C@H](C)[C@H]1O` (stereo not given in full), for which the MIC is 0.06 µg/mL (≈ 0.0521 µM) in [1]; 0.5 µg/mL (≈ 0.434 µM) in series [2]; 2 µg/mL (≈ 1.74 µM) in series [3]; 1 µg/mL (≈ 0.869 µM) in [4]; 8 µg/mL (≈ 6.95 µM) in [5]; 0.5 µg/mL (≈ 0.434 µM) in series [6]. Further, the HC50 at 1 h in [7] turned out to be 20.6 µM.
As for `CC(=O)NNC(=O)[C@H]1[C@@H]2C[C@@H](O[C@@H]3O[C@H](C)[C@@H](O)[C@H](N)[C@@H]3O)/C=C/C=C/C=C/C=C/C=C/C=C/C=C/[C@H](C)[C@@H](O)[C@@H](C)[C@H](C)OC(=O)C[C@H](O)C[C@H](O)CC[C@@H](O)[C@H](O)C[C@H](O)C[C@](O)(C[C@@H]1O)O2`, the MIC in [1] is 0.25 µg/mL (≈ 0.255 µM); in series [2] it was 0.125 µg/mL (≈ 0.128 µM); in [3], 1 µg/mL (≈ 1.02 µM); in series [4] it was 2 µg/mL (≈ 2.04 µM); in series [5], 1 µg/mL (≈ 1.02 µM); in series [6], 0.125 µg/mL (≈ 0.128 µM). Further, the HC50 at 1 h in series [7] is 5.61 µM.
On to `C[C@@H]1[C@H](O)[C@@H](C)/C=C/C=C/C=C/C=C/C=C/C=C/C=C/[C@H](O[C@@H]2O[C@H](C)[C@@H](O)[C@H](NC(=O)CCN)[C@@H]2O)C[C@@H]2O[C@](O)(C[C@@H](O)C[C@@H](O)[C@H](O)CC[C@@H](O)C[C@@H](O)CC(=O)O[C@H]1C)C[C@H](O)[C@H]2C(=O)N1CCN(CCO)CC1`, for which the MIC came out at 0.5 µg/mL (≈ 0.452 µM) in series [1]; 0.5 µg/mL (≈ 0.452 µM) in series [2]; 0.5 µg/mL (≈ 0.452 µM) in series [3]; 1 µg/mL (≈ 0.903 µM) in series [4]; 8 µg/mL (≈ 7.22 µM) in series [5]; 0.25 µg/mL (≈ 0.226 µM) in series [6]. For the same molecule, the HC50 at 1 h in series [7] was determined as 24.4 µM. Further, the half-life in [8] is 11.2 h. In series [9], this molecule showed an exposure AUC(0-t) at 24 h of 4890 ng·h/mL. The AUC(0-inf) in series [10] came to 6210 ng·h/mL. Also, the clearance in [11] stood at 2.7 mL/min/kg. In [12], the MRT inf was found to be 15.3 h. In addition, the Vd in [13] is 2.48 L/kg.

The values are drawn from ChEMBL document CHEMBL5143732 (J Med Chem, 2022).
